{"source": "the supplement of paper PMC10307832", "test_in_all_cases": "relative viability (nuclei count vs DMSO), 5 days (fraction); higher = more cells survive", "key": {"A-427": {"test_system": "A-427", "summary_of_the_method": "(§1)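 Relative viability equals treated-well nuclei counts divided by vehicle-well nuclei counts. Counts came from 4× images of lung cancer cell lines grown in 1536-well plates for 5 days after pin-tool dosing on the day after seeding. Dosing used one drug alone or a fixed anchor-drug dose plus five library-drug doses (not always all listed) in √10 steps, and values are medians of duplicate plates.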"}, "ABC-1": {"test_system": "ABC-1", "summary_of_the_method": "as §1"}, "BEN": {"test_system": "BEN", "summary_of_the_method": "as §1"}, "HARA": {"test_system": "HARA", "summary_of_the_method": "as §1"}, "LCLC-103H": {"test_system": "LCLC-103H", "summary_of_the_method": "as §1"}, "LK-2": {"test_system": "LK-2", "summary_of_the_method": "as §1"}, "LOU-NH91": {"test_system": "LOU-NH91", "summary_of_the_method": "as §1"}, "LU99A": {"test_system": "LU99A", "summary_of_the_method": "as §1"}, "LXF-289": {"test_system": "LXF-289", "summary_of_the_method": "as §1"}, "NCI-H1437": {"test_system": "NCI-H1437", "summary_of_the_method": "as §1"}, "NCI-H1666": {"test_system": "NCI-H1666", "summary_of_the_method": "as §1"}, "NCI-H1755": {"test_system": "NCI-H1755", "summary_of_the_method": "as §1"}, "NCI-H1793": {"test_system": "NCI-H1793", "summary_of_the_method": "as §1"}, "NCI-H1993": {"test_system": "NCI-H1993", "summary_of_the_method": "as §1"}, "NCI-H2085": {"test_system": "NCI-H2085", "summary_of_the_method": "as §1"}, "NCI-H2170": {"test_system": "NCI-H2170", "summary_of_the_method": "as §1"}, "NCI-H2342": {"test_system": "NCI-H2342", "summary_of_the_method": "as §1"}, "NCI-H23": {"test_system": "NCI-H23", "summary_of_the_method": "as §1"}, "NCI-H2405": {"test_system": "NCI-H2405", "summary_of_the_method": "as §1"}, "NCI-H3122": {"test_system": "NCI-H3122", "summary_of_the_method": "as §1"}, "NCI-H661": {"test_system": "NCI-H661", "summary_of_the_method": "as §1"}, "PC-14": {"test_system": "PC-14", "summary_of_the_method": "as §1"}, "RERF-LC-KJ": {"test_system": "RERF-LC-KJ", "summary_of_the_method": "as §1"}}, "data": [{"smiles": "Oc1nc(-c2ccc(C(F)(F)F)cc2)nc2c1CSCC2", "note": "[XAV939] + Cc1nc(Nc2ncc(C(=O)Nc3c(C)cccc3Cl)s2)cc(N2CCN(CCO)CC2)n1 [Dasatinib] (partner 0.075 µM)", "values": [{"measurement": "relative viability", "setting": "A-427; first compound 0.08 µM", "value": 0.838}, {"measurement": "relative viability", "setting": "A-427; first compound 0.253 µM", "value": 0.677}, {"measurement": "relative viability", "setting": "A-427; first compound 0.8 µM", "value": 0.667}, {"measurement": "relative viability", "setting": "A-427; first compound 2.53 µM", "value": 0.557}, {"measurement": "relative viability", "setting": "ABC-1; first compound 0.08 µM", "value": 0.546}, {"measurement": "relative viability", "setting": "ABC-1; first compound 0.253 µM", "value": 0.534}, {"measurement": "relative viability", "setting": "ABC-1; first compound 0.8 µM", "value": 0.467}, {"measurement": "relative viability", "setting": "ABC-1; first compound 2.53 µM", "value": 0.415}, {"measurement": "relative viability", "setting": "BEN; first compound 0.08 µM", "value": 0.294}, {"measurement": "relative viability", "setting": "BEN; first compound 0.253 µM", "value": 0.299}, {"measurement": "relative viability", "setting": "BEN; first compound 0.8 µM", "value": 0.32}, {"measurement": "relative viability", "setting": "BEN; first compound 2.53 µM", "value": 0.287}, {"measurement": "relative viability", "setting": "HARA; first compound 0.08 µM", "value": 0.229}, {"measurement": "relative viability", "setting": "HARA; first compound 0.253 µM", "value": 0.201}, {"measurement": "relative viability", "setting": "HARA; first compound 0.8 µM", "value": 0.275}, {"measurement": "relative viability", "setting": "HARA; first compound 2.53 µM", "value": 0.256}, {"measurement": "relative viability", "setting": "LCLC-103H; first compound 0.08 µM", "value": 0.633}, {"measurement": "relative viability", "setting": "LCLC-103H; first compound 0.253 µM", "value": 0.553}, {"measurement": "relative viability", "setting": "LCLC-103H; first compound 0.8 µM", "value": 0.55}, {"measurement": "relative viability", "setting": "LCLC-103H; first compound 2.53 µM", "value": 0.456}, {"measurement": "relative viability", "setting": "LK-2; first compound 0.08 µM", "value": 0.262}, {"measurement": "relative viability", "setting": "LK-2; first compound 0.253 µM", "value": 0.31}, {"measurement": "relative viability", "setting": "LK-2; first compound 0.8 µM", "value": 0.27}, {"measurement": "relative viability", "setting": "LK-2; first compound 2.53 µM", "value": 0.399}, {"measurement": "relative viability", "setting": "LOU-NH91; first compound 0.08 µM", "value": 0.519}, {"measurement": "relative viability", "setting": "LOU-NH91; first compound 0.253 µM", "value": 0.5}, {"measurement": "relative viability", "setting": "LOU-NH91; first compound 0.8 µM", "value": 0.501}, {"measurement": "relative viability", "setting": "LOU-NH91; first compound 2.53 µM", "value": 0.526}, {"measurement": "relative viability", "setting": "LU99A; first compound 0.08 µM", "value": 0.503}, {"measurement": "relative viability", "setting": "LU99A; first compound 0.253 µM", "value": 0.56}, {"measurement": "relative viability", "setting": "LU99A; first compound 0.8 µM", "value": 0.591}, {"measurement": "relative viability", "setting": "LU99A; first compound 2.53 µM", "value": 0.457}, {"measurement": "relative viability", "setting": "LXF-289; first compound 0.08 µM", "value": 0.179}, {"measurement": "relative viability", "setting": "LXF-289; first compound 0.253 µM", "value": 0.167}, {"measurement": "relative viability", "setting": "LXF-289; first compound 0.8 µM", "value": 0.178}, {"measurement": "relative viability", "setting": "LXF-289; first compound 2.53 µM", "value": 0.139}, {"measurement": "relative viability", "setting": "NCI-H1437; first compound 0.08 µM", "value": 0.353}, {"measurement": "relative viability", "setting": "NCI-H1437; first compound 0.253 µM", "value": 0.488}, {"measurement": "relative viability", "setting": "NCI-H1437; first compound 0.8 µM", "value": 0.416}, {"measurement": "relative viability", "setting": "NCI-H1437; first compound 2.53 µM", "value": 0.654}, {"measurement": "relative viability", "setting": "NCI-H1666; first compound 0.08 µM", "value": 0.921}, {"measurement": "relative viability", "setting": "NCI-H1666; first compound 0.253 µM", "value": 0.801}, {"measurement": "relative viability", "setting": "NCI-H1666; first compound 0.8 µM", "value": 0.761}, {"measurement": "relative viability", "setting": "NCI-H1666; first compound 2.53 µM", "value": 0.744}, {"measurement": "relative viability", "setting": "NCI-H1755; first compound 0.08 µM", "value": 0.484}, {"measurement": "relative viability", "setting": "NCI-H1755; first compound 0.253 µM", "value": 0.324}, {"measurement": "relative viability", "setting": "NCI-H1755; first compound 0.8 µM", "value": 0.424}, {"measurement": "relative viability", "setting": "NCI-H1755; first compound 2.53 µM", "value": 0.413}, {"measurement": "relative viability", "setting": "NCI-H1793; first compound 0.08 µM", "value": 0.379}, {"measurement": "relative viability", "setting": "NCI-H1793; first compound 0.253 µM", "value": 0.339}, {"measurement": "relative viability", "setting": "NCI-H1793; first compound 0.8 µM", "value": 0.399}, {"measurement": "relative viability", "setting": "NCI-H1793; first compound 2.53 µM", "value": 0.419}, {"measurement": "relative viability", "setting": "NCI-H1993; first compound 0.08 µM", "value": 0.52}, {"measurement": "relative viability", "setting": "NCI-H1993; first compound 0.253 µM", "value": 0.52}, {"measurement": "relative viability", "setting": "NCI-H1993; first compound 0.8 µM", "value": 0.557}, {"measurement": "relative viability", "setting": "NCI-H1993; first compound 2.53 µM", "value": 0.535}, {"measurement": "relative viability", "setting": "NCI-H2085; first compound 0.08 µM", "value": 0.288}, {"measurement": "relative viability", "setting": "NCI-H2085; first compound 0.253 µM", "value": 0.196}, {"measurement": "relative viability", "setting": "NCI-H2085; first compound 0.8 µM", "value": 0.285}, {"measurement": "relative viability", "setting": "NCI-H2085; first compound 2.53 µM", "value": 0.204}, {"measurement": "relative viability", "setting": "NCI-H2170; first compound 0.08 µM", "value": 0.505}, {"measurement": "relative viability", "setting": "NCI-H2170; first compound 0.253 µM", "value": 0.496}, {"measurement": "relative viability", "setting": "NCI-H2170; first compound 0.8 µM", "value": 0.46}, {"measurement": "relative viability", "setting": "NCI-H2170; first compound 2.53 µM", "value": 0.394}, {"measurement": "relative viability", "setting": "NCI-H2342; first compound 0.08 µM", "value": 0.309}, {"measurement": "relative viability", "setting": "NCI-H2342; first compound 0.253 µM", "value": 0.285}, {"measurement": "relative viability", "setting": "NCI-H2342; first compound 0.8 µM", "value": 0.326}, {"measurement": "relative viability", "setting": "NCI-H2342; first compound 2.53 µM", "value": 0.254}, {"measurement": "relative viability", "setting": "NCI-H23; first compound 0.08 µM", "value": 0.872}, {"measurement": "relative viability", "setting": "NCI-H23; first compound 0.253 µM", "value": 0.7}, {"measurement": "relative viability", "setting": "NCI-H23; first compound 0.8 µM", "value": 0.895}, {"measurement": "relative viability", "setting": "NCI-H23; first compound 2.53 µM", "value": 0.722}, {"measurement": "relative viability", "setting": "NCI-H2405; first compound 0.08 µM", "value": 0.221}, {"measurement": "relative viability", "setting": "NCI-H2405; first compound 0.253 µM", "value": 0.225}, {"measurement": "relative viability", "setting": "NCI-H2405; first compound 0.8 µM", "value": 0.214}, {"measurement": "relative viability", "setting": "NCI-H2405; first compound 2.53 µM", "value": 0.229}, {"measurement": "relative viability", "setting": "NCI-H3122; first compound 0.08 µM", "value": 0.877}, {"measurement": "relative viability", "setting": "NCI-H3122; first compound 0.253 µM", "value": 0.786}, {"measurement": "relative viability", "setting": "NCI-H3122; first compound 0.8 µM", "value": 0.789}, {"measurement": "relative viability", "setting": "NCI-H3122; first compound 2.53 µM", "value": 0.181}, {"measurement": "relative viability", "setting": "NCI-H661; first compound 0.08 µM", "value": 1}, {"measurement": "relative viability", "setting": "NCI-H661; first compound 0.253 µM", "value": 0.851}, {"measurement": "relative viability", "setting": "NCI-H661; first compound 0.8 µM", "value": 0.812}, {"measurement": "relative viability", "setting": "NCI-H661; first compound 2.53 µM", "value": 0.637}, {"measurement": "relative viability", "setting": "PC-14; first compound 0.08 µM", "value": 0.288}, {"measurement": "relative viability", "setting": "PC-14; first compound 0.253 µM", "value": 0.252}, {"measurement": "relative viability", "setting": "PC-14; first compound 0.8 µM", "value": 0.204}, {"measurement": "relative viability", "setting": "PC-14; first compound 2.53 µM", "value": 0.148}, {"measurement": "relative viability", "setting": "RERF-LC-KJ; first compound 0.08 µM", "value": 0.77}, {"measurement": "relative viability", "setting": "RERF-LC-KJ; first compound 0.253 µM", "value": 0.643}, {"measurement": "relative viability", "setting": "RERF-LC-KJ; first compound 0.8 µM", "value": 0.55}, {"measurement": "relative viability", "setting": "RERF-LC-KJ; first compound 2.53 µM", "value": 0.46}]}]}
